Where two headings read alike, the source gives them in different places.
System: M. mycetomatis genome strain MM55
Experiment: CLSI M38-A2 based in vitro susceptibility screening (XTT or resazurin), growth at fixed concentration
Type: cell-based, Madurella mycetomatis
Details: Madurella mycetomatis; for Percent fungal survival at 100 µM: read-out: Percentage survival at 100um, 100 uM A (second replicate column)
[1] = mean of three replicates, read-out: Percentage survival at 25um, 25 uM mean
[2] = replicate A, read-out: Percentage survival at 25um, 25 um A
[3] = replicate B, read-out: Percentage survival at 25um, 25 uM B
[4] = replicate C, read-out: Percentage survival at 25um, 25 uM C
[5] = first replicate column, read-out: Percentage survival at 100um, 100 uM A
[6] = mean of three replicates, read-out: Percentage survival at 100um, 100 uM mean
[7] = second replicate column, read-out: Percentage survival at 100um, 100 uM A
[8] = third replicate column, read-out: Percentage survival at 100um, 100 uM A
[9] = mean of replicates, read-out: Percentage survival at 25um, 25 uM mean
[10] = mean of replicates, read-out: Percentage survival at 100um, 100 uM mean
[11] = replicate 1, read-out: Percentage survival at 100um, 100 uM A
[12] = replicate 2, read-out: Percentage survival at 100um, 100 uM A
[13] = replicate 3, read-out: Percentage survival at 100um, 100 uM A
[14] = replicate 1, read-out: Percentage survival at 100um, 100 uM A (first replicate column)
[15] = replicate 3, read-out: Percentage survival at 100um, 100 uM A (third replicate column)
[16] = mean of three, M. mycetomatis MM55, read-out: Percentage survival at 25um, 25 uM mean
[17] = replicate A, M. mycetomatis MM55, read-out: Percentage survival at 25um, 25 um A
[18] = replicate B, M. mycetomatis MM55, read-out: Percentage survival at 25um, 25 uM B
[19] = replicate C, M. mycetomatis MM55, read-out: Percentage survival at 25um, 25 uM C
[20] = mean of three, M. mycetomatis MM55, read-out: Percentage survival at 100um, 100 uM mean
[21] = replicate 1, M. mycetomatis MM55, read-out: Percentage survival at 100um, 100 uM A (first replicate column)
[22] = replicate 2, M. mycetomatis MM55
[23] = replicate 3, M. mycetomatis MM55, read-out: Percentage survival at 100um, 100 uM A (third replicate column)

COc1cccc(N2CCN(C3=Nc4c(F)cccc4[C@H](CC(=O)O)N3c3cc(C(F)(F)F)ccc3OC)CC2)c1 [MMV690653]
activity at 25 µM [1]: 91% | activity at 25 µM [2]: 89.7% | activity at 25 µM [3]: 103% | activity at 25 µM [4]: 80% | activity at 100 µM [5]: 86.6% | activity at 100 µM [6]: 86.8% | activity at 100 µM [7]: 87.2% | activity at 100 µM [8]: 86.5%

O=C(NO)C1(CS(=O)(=O)c2ccc(Oc3ccc(Cl)cc3)cc2)CCOCC1 [MMV690706]
activity at 25 µM (mean of replicates, MM55, read-out: Percentage survival at 25um, 25 uM mean): 82% | activity at 25 µM (replicate A, MM55, read-out: Percentage survival at 25um, 25 um A): 85.7% | activity at 25 µM (replicate B, MM55, read-out: Percentage survival at 25um, 25 uM B): 90.9% | activity at 25 µM (replicate C, MM55, read-out: Percentage survival at 25um, 25 uM C): 69.4% | activity at 100 µM (mean of replicates, MM55, read-out: Percentage survival at 100um, 100 uM mean): 68.5% | activity at 100 µM (replicate 1, MM55, read-out: Percentage survival at 100um, 100 uM A): 72.4% | activity at 100 µM (replicate 2, MM55, read-out: Percentage survival at 100um, 100 uM A): 62.8% | activity at 100 µM (replicate 3, MM55, read-out: Percentage survival at 100um, 100 uM A): 70.2%

CN(C)CCNC(=O)c1cccc2cccnc12 [MMV811071]
activity at 25 µM [9]: 84.2% | activity at 25 µM [2]: 90.3% | activity at 25 µM [3]: 90.7% | activity at 25 µM [4]: 71.6% | activity at 100 µM [10]: 85.2% | activity at 100 µM [11]: 79.4% | activity at 100 µM [12]: 92.5% | activity at 100 µM [13]: 83.6%

CCc1ccc(C2CC(C(F)(F)F)n3ncc(C(=O)NCc4ccc(OC)cc4)c3N2)cc1 (stereo not shown) [MMV831201]
activity at 25 µM [9]: 64.1% | activity at 25 µM [2]: 65% | activity at 25 µM [3]: 56.7% | activity at 25 µM [4]: 70.7% | activity at 100 µM [10]: 67.5% | activity at 100 µM [11]: 62% | activity at 100 µM [12]: 63% | activity at 100 µM [13]: 77.5%

Nc1cc(-c2nc3ccccc3[nH]2)n[nH]c1=O [MMV975972]
activity at 25 µM [1]: 97% | activity at 25 µM [2]: 99% | activity at 25 µM [3]: 101% | activity at 25 µM [4]: 90.7% | activity at 100 µM [6]: 95.6% | activity at 100 µM [14]: 105% | Percent fungal survival at 100 µM (replicate 2): 90.7% | activity at 100 µM [15]: 91.4%

O=C1C=C(c2ccccc2)S(=O)(=O)c2ccccc21 [MMV1006203]
activity at 25 µM [9]: 65% | activity at 25 µM [2]: 59.6% | activity at 25 µM [3]: 126% | activity at 25 µM [4]: 9.78% | activity at 100 µM [10]: 26.1% | activity at 100 µM [14]: 63.3% | Percent fungal survival at 100 µM (replicate 2): 4.04% | activity at 100 µM [15]: 10.9%

CC(C)Oc1cccc(NC(=O)c2ccccc2C(F)(F)F)c1 [MMV1009286]
activity at 25 µM (mean, read-out: Percentage survival at 25um, 25 uM mean): 61% | activity at 25 µM [2]: 87.9% | activity at 25 µM [3]: 37.1% | activity at 25 µM [4]: 58% | activity at 100 µM (mean, read-out: Percentage survival at 100um, 100 uM mean): 39% | activity at 100 µM (replicate (first column), read-out: Percentage survival at 100um, 100 uM A): 26.3% | activity at 100 µM (replicate (second column), read-out: Percentage survival at 100um, 100 uM A): 52.4% | activity at 100 µM (replicate (third column), read-out: Percentage survival at 100um, 100 uM A): 38.1%

O=C(c1ccc(F)cc1)N1CCN2C(=O)c3ccccc3C12c1ccccc1 (stereo not shown) [MMV1165877]
activity at 25 µM [1]: 89.2% | activity at 25 µM [2]: 90% | activity at 25 µM [3]: 95.6% | activity at 25 µM [4]: 82.1% | activity at 100 µM [6]: 76.1% | activity at 100 µM [14]: 85.4% | Percent fungal survival at 100 µM (replicate 2): 71.7% | activity at 100 µM [15]: 71.2%

CC(C)(C)c1ccc(Oc2ccc(N)cc2)cc1 [MMV1174026]
activity at 25 µM [1]: 74% | activity at 25 µM [2]: 108% | activity at 25 µM [3]: 51.8% | activity at 25 µM [4]: 62.2% | activity at 100 µM [5]: -4.12% | activity at 100 µM [6]: 2.41% | activity at 100 µM [7]: 6.23% | activity at 100 µM [8]: 5.13%

CC(C)(C)c1cc(CCC(=O)N2CCC2)cc(C(C)(C)C)c1O [MMV1229204]
activity at 25 µM [16]: 77.7% | activity at 25 µM [17]: 91.6% | activity at 25 µM [18]: 84.3% | activity at 25 µM [19]: 57% | activity at 100 µM [20]: 62.1% | activity at 100 µM [21]: 57.1% | Percent fungal survival at 100 µM [22]: 64% | activity at 100 µM [23]: 65.1%

O=C(NCc1ccccc1Cl)c1cnc2ccccc2n1 [MMV1230557]
activity at 25 µM [16]: 56.8% | activity at 25 µM [17]: 50.8% | activity at 25 µM [18]: 54.2% | activity at 25 µM [19]: 65.3% | activity at 100 µM [20]: 67.2% | activity at 100 µM [21]: 41.9% | Percent fungal survival at 100 µM [22]: 71.7% | activity at 100 µM [23]: 88.1%

Source: article PMC8815882, “Screening the pandemic response box identified benzimidazole carbamates, Olorofim and ravuconazole as promising drug candidates for the treatment of eumycetoma” (PLoS Neglected Tropical Diseases, 2022)
